The text below walks through data of ChEMBL document CHEMBL5338828, “Structure-Activity Relationships of Bis-Intercalating Peptides and Their Application as Antibody-Drug Conjugate Payloads” (J Med Chem, 2023).

The nature of series [1]: Retention time of the compound by HPLC analysis. Format: physicochemical.
A short description of series [2]: Binding affinity to biotinylated hairpin DNA (unknown origin) assessed as binding constant by SPR analysis.
Another series relates to Clupeidae. The experiment in a line: Binding affinity to Herring sperm DNA assessed as melting temperature by differential scanning calorimetric analysis.

`CC(C)[C@H]1C(=O)NC[C@@H](NC(=O)c2nc3ccccc3cc2O)C(=O)N2CCCC[C@H]2C(=O)NCC(=O)N(C)CC(=O)N(C)C2(CCC2)C(=O)NC[C@@H](NC(=O)c2nc3ccccc3cc2O)C(=O)N2CCCC[C@H]2C(=O)NCC(=O)N(C)CC(=O)N1C` registered a Retention_time in series [1] of 17 min. In series [2], the equilibrium dissociation constant (Kd) amounted to 300 nM.
With `CC(C)[C@H]1C(=O)NC[C@@H](NC(=O)c2nc3ccccc3cc2O)C(=O)N2CCCC[C@H]2C(=O)NCC(=O)N(C)CC(=O)N(C)[C@@H](C2CCCCC2)C(=O)NC[C@@H](NC(=O)c2nc3ccccc3cc2O)C(=O)N2CCCC[C@H]2C(=O)NCC(=O)N(C)CC(=O)N1C`, the Tm in the series with Clupeidae turned out to be 86 °C. In series [1], this compound showed a Retention_time of 18.9 min. In series [2], the dissociation constant (Kd) is 400 nM.
In turn, `CC[C@H](C)[C@H]1COC[C@@H](NC(=O)c2nc3ccccc3cc2O)C(=O)N2CCCC[C@H]2C(=O)NCC(=O)N(C)CC(=O)N(C)[C@@H](C(C)C)C(=O)NC[C@@H](NC(=O)c2nc3ccccc3cc2O)C(=O)N2CCCC[C@H]2C(=O)NCC(=O)N(C)CC(=O)N1C` displayed a Retention_time in series [1] of 19.4 min. Moreover, the Kd in series [2] worked out at 50 nM.
As to `CC(C)[C@H]1C(=O)NC[C@@H](NC(=O)c2nc3ccccc3cc2O)C(=O)N2CCCC[C@H]2C(=O)NCC(=O)N(C)CC(=O)N2CCC[C@H]2C(=O)NC[C@@H](NC(=O)c2nc3ccccc3cc2O)C(=O)N2CCCC[C@H]2C(=O)NCC(=O)N(C)CC(=O)N1C`, the Tm in the series with Clupeidae was determined as 88 °C. In series [1], this compound returned a Retention_time of 15 min. In addition, the Kd in series [2] is 1100 nM.
`CC(C)[C@H]1C(=O)N(C)C[C@@H](NC(=O)c2nc3ccccc3cc2O)C(=O)N2CCCC[C@H]2C(=O)NCC(=O)N(C)CC(=O)N(C)[C@@H](C(C)C)C(=O)N(C)C[C@@H](NC(=O)c2nc3ccccc3cc2O)C(=O)N2CCCC[C@H]2C(=O)NCC(=O)N(C)CC(=O)N1C`: in the series on Clupeidae, the Tm worked out at 88 °C. This compound also returned a Retention_time in series [1] of 17.7 min.
With `CC[C@H](C)[C@H]1C(=O)NC[C@@H](NC(=O)c2nc3ccccc3cc2O)C(=O)N2CCCC[C@H]2C(=O)NCC(=O)N(C)CC(=O)N(C)[C@@H](C(C)C)C(=O)NC[C@@H](NC(=O)c2nc3ccccc3cc2O)C(=O)N2CCCC[C@H]2C(=O)NCC(=O)N(C)CC(=O)N1C`, in the series on Clupeidae, the Tm was 89 °C. Further, in series [1], the Retention_time amounted to 18 min. Besides, the dissociation constant Kd in series [2] worked out at 200 nM.
In series [1], `CC(C)[C@H]1C(=O)NC[C@@H](NC(=O)c2nc3ccccc3cc2O)C(=O)N2CCCC[C@H]2C(=O)NCC(=O)N(C)CC(=O)N(C)[C@@H](c2ccccc2)C(=O)NC[C@@H](NC(=O)c2nc3ccccc3cc2O)C(=O)N2CCCC[C@H]2C(=O)NCC(=O)N(C)CC(=O)N1C` came in with a Retention_time of 17.2 min. In addition, the Kd in series [2] turned out to be 1000 nM.
As for `CC(C)[C@H]1C(=O)NC[C@@H](NC(=O)c2nc3ccccc3cc2O)C(=O)N2CCCC[C@H]2C(=O)NCC(=O)N(C)CC(=O)N2CCCCC[C@H]2C(=O)NC[C@@H](NC(=O)c2nc3ccccc3cc2O)C(=O)N2CCCC[C@H]2C(=O)NCC(=O)N(C)CC(=O)N1C`, the Tm in the series with Clupeidae was determined as 88 °C. Moreover, the Retention_time in series [1] turned out to be 16.4 min. The equilibrium dissociation constant (Kd) in series [2] worked out at 700 nM.
`CN1CC(=O)N2CCCCC[C@H]2C(=O)NC[C@@H](NC(=O)c2nc3ccccc3cc2O)C(=O)N2CCCC[C@H]2C(=O)NCC(=O)N(C)CC(=O)N2CCCCC[C@H]2C(=O)NC[C@@H](NC(=O)c2nc3ccccc3cc2O)C(=O)N2CCCC[C@H]2C(=O)NCC1=O` had a Retention_time in series [1] of 15.8 min. Besides, in series [2], the equilibrium dissociation constant (Kd) came to 770 nM.
Take `CC(C)[C@H]1C(=O)NC[C@@H](NC(=O)c2nc3ccccc3cc2O)C(=O)N2CCCC[C@H]2C(=O)NCC(=O)N(C)CC(=O)N(C)[C@@H]([C@H](C)OC(C)(C)C)C(=O)NC[C@@H](NC(=O)c2nc3ccccc3cc2O)C(=O)N2CCCC[C@H]2C(=O)NCC(=O)N(C)CC(=O)N1C`: in the series with Clupeidae, the Tm was determined as 88 °C. Moreover, the Retention_time in series [1] was 18.4 min.
As for `CN1CC(=O)N2CCCC[C@H]2COC[C@@H](NC(=O)c2nc3ccccc3cc2O)C(=O)N2CCCC[C@H]2C(=O)NCC(=O)N(C)CC(=O)N2CCCC[C@H]2C(=O)NC[C@@H](NC(=O)c2nc3ccccc3cc2O)C(=O)N2CCCC[C@H]2C(=O)NCC1=O`, the Tm with Clupeidae came to 94 °C. The Retention_time in series [1] was determined as 16.6 min. For the same compound, in series [2], the dissociation constant (Kd) came out at 950 nM.
In turn, `CC[C@@H](C)[C@H]1C(=O)NC[C@@H](NC(=O)c2nc3ccc(Br)cc3cc2O)C(=O)N2CCCC[C@H]2C(=O)NCC(=O)N(C)CC(=O)N(C)[C@@H]([C@H](C)CC)C(=O)NC[C@@H](NC(=O)c2nc3ccc(Br)cc3cc2O)C(=O)N2CCCC[C@H]2C(=O)NCC(=O)N(C)CC(=O)N1C` displayed a Retention_time in series [1] of 21 min.
In turn, `CCN1C(=O)CN(C)C(=O)CNC(=O)[C@@H]2CCCCN2C(=O)[C@H](NC(=O)c2nc3ccccc3cc2O)CNC(=O)[C@H](C(C)C)N(CC)C(=O)CN(C)C(=O)CNC(=O)[C@@H]2CCCCN2C(=O)[C@H](NC(=O)c2nc3ccccc3cc2O)CNC(=O)[C@@H]1C(C)C` had a Retention_time in series [1] of 17.9 min. Further, the Kd in series [2] stood at 500 nM.
Turning to `CC(C)[C@H]1C(=O)O[C@H](C)[C@@H](NC(=O)c2nc3ccccc3cc2O)C(=O)N2CCCC[C@H]2C(=O)NCC(=O)N(C)CC(=O)N(C)[C@@H](C(C)C)C(=O)O[C@H](C)[C@@H](NC(=O)c2nc3ccccc3cc2O)C(=O)N2CCCC[C@H]2C(=O)NCC(=O)N(C)CC(=O)N1C`, in the series on Clupeidae, the Tm turned out to be 85 °C. The compound further yielded a Retention_time in series [1] of 21.6 min.
`CN1CC(=O)N2CCCC[C@H]2C(=O)NC[C@@H](NC(=O)c2nc3ccccc3cc2O)C(=O)N2CCCC[C@H]2C(=O)NCC(=O)N(C)CC(=O)N2CCCC[C@H]2C(=O)NC[C@@H](NC(=O)c2nc3ccccc3cc2O)C(=O)N2CCCC[C@H]2C(=O)NCC1=O`: the Tm in the series with Clupeidae was 97 °C. The same compound displayed a Retention_time in series [1] of 15.7 min. Moreover, the Kd in series [2] amounted to 500 nM.
Consider `CC(C)[C@H]1COC[C@@H](NC(=O)c2nc3ccccc3cc2O)C(=O)N2CCCC[C@H]2C(=O)NCC(=O)N(C)CC(=O)N(C)[C@@H](C(C)C)COC[C@@H](NC(=O)c2nc3ccccc3cc2O)C(=O)N2CCCC[C@H]2C(=O)NCC(=O)N(C)CC(=O)N1C`, for which the Tm with Clupeidae came out at 91 °C. In addition, the Retention_time in series [1] is recorded as 18.2 min.
Take `CC(C)[C@H]1C(=O)NC[C@@H](NC(=O)c2nc3ccccc3cc2O)C(=O)N2CCCC[C@H]2C(=O)NCC(=O)N(C)CC(=O)N(C)C(C)(C)C(=O)NC[C@@H](NC(=O)c2nc3ccccc3cc2O)C(=O)N2CCCC[C@H]2C(=O)NCC(=O)N(C)CC(=O)N1C`: the Retention_time in series [1] is on record as 15.8 min. Further, the Kd in series [2] was determined as 700 nM.
`CCN1CC(=O)N(C)[C@@H](C(C)C)C(=O)NC[C@@H](NC(=O)c2nc3ccccc3cc2O)C(=O)N2CCCC[C@H]2C(=O)NCC(=O)N(CC)CC(=O)N(C)[C@@H](C(C)C)C(=O)NC[C@@H](NC(=O)c2nc3ccccc3cc2O)C(=O)N2CCCC[C@H]2C(=O)NCC1=O` registered a Retention_time in series [1] of 18.5 min. Further, the Kd in series [2] stood at 300 nM.
The like results for `CC(C)[C@H]1C(=O)NC[C@@H](NC(=O)c2nc3ccccc3cc2O)C(=O)N2CCCC[C@H]2C(=O)NCC(=O)N(C)CC(=O)N(C)C2(CC2)C(=O)NC[C@@H](NC(=O)c2nc3ccccc3cc2O)C(=O)N2CCCC[C@H]2C(=O)NCC(=O)N(C)CC(=O)N1C` were, in that order, 15.4 min and 700 nM.
The compound `C[C@H]1NC(=O)[C@@H]2CCCCN2C(=O)CN(C)C(=O)CNC(=O)[C@@H]2CCCCN2C(=O)[C@H](NC(=O)c2nc3ccccc3cc2O)[C@@H](C)NC(=O)[C@@H]2CCCCN2C(=O)CN(C)C(=O)CNC(=O)[C@@H]2CCCCN2C(=O)[C@@H]1NC(=O)c1nc2ccccc2cc1O` returned a Retention_time in series [1] of 16.7 min. Besides, the dissociation constant Kd in series [2] was found to be 9 nM.
As for `O=C(N[C@@H]1CNC(=O)[C@@H]2CCCCN2C(=O)COCCNC(=O)[C@@H]2CCCCN2C(=O)[C@H](NC(=O)c2nc3ccccc3cc2O)CNC(=O)[C@@H]2CCCCN2C(=O)COCCNC(=O)[C@@H]2CCCCN2C1=O)c1nc2ccccc2cc1O`, the Tm with Clupeidae worked out at 68 °C. Further, the Retention_time in series [1] turned out to be 16.1 min.
Regarding `CC(C)[C@H]1C(=O)NC[C@@H](NC(=O)c2nc3ccccc3cc2O)C(=O)N2CCCC[C@H]2C(=O)NCC(=O)N(C)CC(=O)N2CCCC[C@H]2C(=O)NC[C@@H](NC(=O)c2nc3ccccc3cc2O)C(=O)N2CCCC[C@H]2C(=O)NCC(=O)N(C)CC(=O)N1C`, the Tm with Clupeidae was 92 °C. Also, the Retention_time in series [1] is recorded as 16.4 min. Moreover, the equilibrium dissociation constant (Kd) in series [2] was found to be 570 nM.
Regarding `CC[C@H](C)[C@H]1C(=O)N[C@H](C)[C@@H](NC(=O)c2nc3ccccc3cc2O)C(=O)N2CCCC[C@H]2C(=O)NCC(=O)N(C)CC(=O)N(C)[C@@H]([C@@H](C)CC)C(=O)N[C@H](C)[C@@H](NC(=O)c2nc3ccccc3cc2O)C(=O)N2CCCC[C@H]2C(=O)NCC(=O)N(C)CC(=O)N1C`, the Tm with Clupeidae turned out to be 85 °C. Also, in series [1], the Retention_time came to 20.9 min.
Regarding `CC(C)[C@H]1C(=O)NC[C@@H](NC(=O)c2nc3ccccc3cc2O)C(=O)N2CCCC[C@H]2C(=O)NCC(=O)N(C)CC(=O)N(C)[C@@H]([C@@H](C)O)C(=O)NC[C@@H](NC(=O)c2nc3ccccc3cc2O)C(=O)N2CCCC[C@H]2C(=O)NCC(=O)N(C)CC(=O)N1C`, the Tm in the series on Clupeidae worked out at 86 °C. Further, in series [1], the Retention_time is listed as 10.6 min.
Turning to `CC(C)[C@H]1C(=O)NC[C@@H](NC(=O)c2nc3ccccc3cc2O)C(=O)N2CCCC[C@H]2C(=O)NCCOCC(=O)N(C)[C@@H](C(C)C)C(=O)NC[C@@H](NC(=O)c2nc3ccccc3cc2O)C(=O)N2CCCC[C@H]2C(=O)NCCOCC(=O)N1C`, the Tm in the series with Clupeidae was determined as 68 °C. Further, in series [1], the Retention_time came to 16 min.
On to `CC(C)[C@@H]1NC(=O)CN(C)C(=O)CNC(=O)[C@@H]2CCCCN2C(=O)[C@H](NC(=O)c2nc3ccccc3cc2O)CNC(=O)[C@H](C(C)C)NC(=O)CN(C)C(=O)CNC(=O)[C@@H]2CCCCN2C(=O)[C@H](NC(=O)c2nc3ccccc3cc2O)CNC1=O`, for which the Retention_time in series [1] worked out at 14.6 min. Besides, the dissociation constant Kd in series [2] came to 9000 nM.
As to `CC(C)[C@H]1C(=O)N[C@H](C)[C@@H](NC(=O)c2nc3ccccc3cc2O)C(=O)N2CCCC[C@H]2C(=O)NCC(=O)N(C)CC(=O)N(C)[C@@H](C(C)C)C(=O)N[C@H](C)[C@@H](NC(=O)c2nc3ccccc3cc2O)C(=O)N2CCCC[C@H]2C(=O)NCC(=O)N(C)CC(=O)N1C`, the Tm in the series with Clupeidae was 87 °C. The same compound yielded a Retention_time in series [1] of 17.6 min.
